Reference: paper PMC12221113, “Deferasirox Derivatives as Inhibitors of Kallikrein‐Related Peptidases Associated to Neurodegenerative Diseases” (Chemmedchem, 2025)
Where two headings read alike, the source gives them in different places.

Experiments:
[1] = Calcein transchelation (calcein release) assay; type: physicochemical; conditions: calcein 100 nM, 4 h at room temperature; estimation, assay not fully quantitative; read-out: Apparent affinity (pseudo‐affinity constant Kd for Fe3+)
KLK13 = molecular target: T1, KLK13 (Homo sapiens, UniProt Q9UKR3); assay: Selectivity screening, KLK13; conditions: read-out: percentage of inhibition KLK13
T1 sequence (Q9UKR3 26-277 limits assumed): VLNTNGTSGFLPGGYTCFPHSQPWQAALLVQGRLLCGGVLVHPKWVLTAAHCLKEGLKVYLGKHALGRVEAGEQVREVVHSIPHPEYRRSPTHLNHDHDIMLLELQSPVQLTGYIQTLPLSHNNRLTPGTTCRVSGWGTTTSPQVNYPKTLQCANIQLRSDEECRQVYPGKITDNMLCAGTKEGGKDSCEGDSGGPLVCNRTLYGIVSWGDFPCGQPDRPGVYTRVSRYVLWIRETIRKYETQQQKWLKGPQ
Description: (§1) All enzyme stocks were stored at −20 °C and purchased from R&D Systems as proenzymes (KLK6, KLK8, KLK13) or as mature and active forms (KLK5). Activation of KLK6, KLK8, and KLK13 is performed in optimized buffers. The activation reaction is initiated by Lysyl‐Endopeptidase at 2.5 mU mL^−1 (Wako Bioproducts). The activation reaction is stopped by diluting the enzyme to 0.5 μg mL^−1 in assay buffer (50 mM Tris, 1 M Citrate, 0.05% w/v Brij‐35, pH 8) to obtain an active enzyme stock. KLK1 was purchased from R & D Systems as pro‐KLK1. Activation of KLK1 is performed in 50 mM Tris‐HCl, 10 mM CaCl2, 150 mM NaCl, 0.05% Brij‐35, pH 7.5. The activation reaction is initiated by bacterial thermolysin at 0.4 μg mL^−1 (Sigma‐Aldrich) and stopped by addition of 100 mM EDTA (Sigma‐Aldrich) to obtain an active KLK1 stock at the same concentration of 100 μg mL^−1. The activation reactions for KLK7 are initiated bacterial thermolysin at 0.4 μg mL^−1 (Sigma‐Aldrich) and stopped by addition of 100 mM EDTA (Sigma‐Aldrich) to obtain active stocks. All enzyme stocks were stored at −20 °C. H‐PFR‐AMC (KLK1), Boc‐VPR‐AMC (KLK5, KLK8, KLK13), Boc‐QAR‐AMC (KLK6, Plasmin), substrates were purchased from Bachem. MeO‐Suc‐RPY‐AMC (KLK7) substrate was purchased from AAT Bioquest. Plasmin (Sigma‐Aldrich) was purchased in mature and active form.
(§2) Compounds were screened on KLKs using a BMG Fluostar microplate reader (black 96‐well microplates). Hit compounds were screened on the selected group of enzymes using optimized concentrations and buffers (KLK1 0.8 nM, KLK4 10 nM, KLK5 0.2 nM; KLK6 1.9 nM; KLK7 6 nM; KLK8 0.2 nM; KLK11 5.2 nM, KLK13 0.47 nM, KLK14 2.5 nM, plasmin 3.3 nM, thrombin 0.1 nM, tissue‐plasminogen activator (tPA) 0.1 nM, matriptase 1 nM, cathepsin L 2 nM) either in absence or prior preincubation in the presence of 100 μM of Fe^3+.
(§3) The proteases are first preincubated for 15 min with each compound (50 and 100 μM) or with DMSO (<2%, negative control) in a total volume of 85 μL of 50 mM Tris buffer, 1 M citrate, 0.05% Brij‐35, pH 7, 37 °C. The reaction is triggered by the appropriate substrate at the optimized concentration in 15 μL of 50 mM Tris buffer, 1 M citrate, 0.05% Brij‐35, pH 8 (H‐PFR‐AMC 100 μM; Boc‐VPR‐AMC 100 μM; Boc‐QAR‐AMC 100 μM; Meo‐Suc‐RPY‐AMC 150 μM, Z‐LR‐AMC 100 μM, Z‐GGR‐AMC 100 μM) and followed for 30 min at 37 °C. […] The release of the AMC fluorescent group is detected using the following wavelengths: λex = 360 nm and λem = 460 nm. The percent inhibition is calculated from Equation (1) where V 0 is the initial rate of the DMSO control, the initial rate in the presence of the inhibitor V i. (1) %inhibition=(1−(vi/v0))×100

[2] = tested on: KLK's of the CNS triad (KLK1‐KLK6‐KLK8); assay: Reversibility analysis by dilution after preincubation; type: biochemical, human; conditions: 100-fold dilution after 15 min preincubation
Description: Aliquots of reaction mixtures (1 μL) were added to 99 μL of buffer containing the fluorogenic substrate (experimental conditions identical to the routine protocol used for a given enzyme). The mechanism of inhibition was determined by varying substrate and inhibitor concentrations, the type of inhibition and inhibition parameter (Ki or Ki′) are determined by Dixon's plots.

KLK4 = molecular target: T2, KLK4 (Homo sapiens, UniProt Q9Y5K2); assay: Selectivity screening, KLK4; type: biochemical; conditions: 50 μM compound, without Fe3+; read-out: percentage of inhibition KLK4
T2 construct: purchased R&D Systems
T2 sequence (Q9Y5K2 31-254): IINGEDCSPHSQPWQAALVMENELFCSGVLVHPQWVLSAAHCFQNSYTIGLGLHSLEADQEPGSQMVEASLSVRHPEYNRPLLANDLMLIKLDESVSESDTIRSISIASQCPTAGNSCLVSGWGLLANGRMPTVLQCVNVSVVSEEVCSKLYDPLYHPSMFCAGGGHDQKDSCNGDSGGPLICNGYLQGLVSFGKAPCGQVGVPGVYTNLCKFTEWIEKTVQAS

[3] = CCK8 cell viability assay, SH-SY5Y; type: cell-based; conditions: human, SH-SY5Y neuroblastoma cells, 25 and 50 μM, in absence or presence of iron (100 µM FAC), read-out: percentage of cell viability
Description: (§4) Human neuroblastoma cell line (SH-SY5Y) was purchased at American Type Culture Collection
(§5) Both cell lines were cultured in Dulbecco’s Modified Eagle Medium (DMEM)
(§6) containing 10% heat inactivated fetal bovine serum (FBS), 1% Penicillin/Streptomycin, 10 mM
(§7) Sodium Pyruvate, 2 mM L-Glutamine and 4,5 g/L D-glucose at 37°C, in a 5% humidified
(§8) incubator. Cells were cultivated until 80% confluence in flasks then were plated in 96-well
(§9) plates. For this experiment, SH-SY5Y were used at 10th passage and HMC3 at 13th. SH-SY5Y
(§10) cells were seeded at a density of 3x10^4 cells/well and HMC3 at a density of 10^4 cells/well. After
(§11) seeding, cells were left in complete medium overnight to adhere to the plates. After that, cells
(§12) were treated using inhibitors solubilized in DMSO at stock concentrations of 2,5 mM or 5 mM
(§13) with or without 10 mM iron. Iron solution was prepared by using FAC (Ferric Ammonium
(§14) Citrate, Sigma®) at stock concentration of 25 mM. After 24h of treatment, cell viability was
(§15) assessed with the CCK8 (Cell-Counting Kit 8) from TargetMol. After treatments, 10 µL of CCK8
(§16) reagent was diluted in 90 µL of complete medium and added to each well. After 3 hours at
(§17) 37°C, cell viability was assessed by absorbance measurement at 460 nm. Each viability assay
(§18) is the mean of two independent experiments performed in triplicates.
(§19) treated for 24h with the two selected concentrations of inhibitor (25 µM or 50 µM)
(§20) preincubated or not with 100 µM of FAC. The data are the mean of two independent
experiments performed in triplicates.

[4] = CCK8 cell viability assay, HMC3; type: cell-based; conditions: human, HMC3 microglial cells; HMC3, 24h, 25 and 50 μM, in absence or presence of iron (100 µM FAC); read-out: percentage of cell viability
Description: as §4, §5, §6, §7, §8, §9, §10, §11, §12, §13, §14, §15, §16, §17, §18, §19, §20
experiments performed in triplicates.

KLK14 = molecular target: T3, KLK14 (Homo sapiens, UniProt Q9P0G3); assay: Selectivity screening, KLK14; type: biochemical; conditions: 50 μM compound, without Fe3+; read-out: percentage of inhibition KLK14
T3 construct: purchased R&D Systems
T3 sequence (Q9P0G3 25-251): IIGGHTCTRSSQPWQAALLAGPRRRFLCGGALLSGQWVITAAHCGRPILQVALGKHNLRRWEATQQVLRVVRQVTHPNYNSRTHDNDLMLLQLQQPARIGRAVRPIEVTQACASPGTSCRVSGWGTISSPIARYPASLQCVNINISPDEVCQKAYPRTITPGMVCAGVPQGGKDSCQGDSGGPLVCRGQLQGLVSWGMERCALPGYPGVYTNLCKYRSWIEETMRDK

KLK11 = molecular target: T4, KLK11 (Homo sapiens, UniProt Q9UBX7); assay: Selectivity screening, KLK11; type: biochemical; conditions: 50 μM compound, without Fe3+; read-out: percentage of inhibition KLK11
T4 construct: purchased R&D Systems
T4 sequence (Q9UBX7 54-282): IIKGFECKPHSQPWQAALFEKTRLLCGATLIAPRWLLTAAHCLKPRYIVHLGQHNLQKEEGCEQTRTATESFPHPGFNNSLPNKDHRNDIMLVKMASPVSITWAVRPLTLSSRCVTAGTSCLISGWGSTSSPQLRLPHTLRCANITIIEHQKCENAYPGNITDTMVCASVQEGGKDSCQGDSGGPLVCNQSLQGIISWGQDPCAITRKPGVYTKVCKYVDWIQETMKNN

KLK5 = molecular target: T5, KLK5 (Homo sapiens, UniProt Q9Y337); assay: Selectivity screening, KLK5; conditions: read-out: percentage of inhibition KLK5
T5 sequence (Q9Y337 67-293 limits assumed): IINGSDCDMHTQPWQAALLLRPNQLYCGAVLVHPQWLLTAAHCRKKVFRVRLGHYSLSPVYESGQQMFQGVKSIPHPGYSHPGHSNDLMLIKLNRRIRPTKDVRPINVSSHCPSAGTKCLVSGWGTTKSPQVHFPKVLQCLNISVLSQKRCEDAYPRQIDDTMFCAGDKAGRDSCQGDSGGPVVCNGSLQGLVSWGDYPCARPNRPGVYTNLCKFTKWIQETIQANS
Description: as §1, §2, §3

[5] = UV–vis spectroscopy of Fe3+ chelation and complex stability; type: physicochemical; conditions: activity buffer pH 7.4, 1:1 ratio, t = 0 to 240 min
Description: UV–vis analysis of DFX was first performed to monitor the chelation process and the stability of the Fe^3+ complex over time at a 1:1 ratio, typically representing the duration of inhibition assay (30 min to 4 h) (Figure S1, Supporting Information). In these conditions of pH (7.4) and ligand‐to‐iron ratio and according to Steinhauser et al. the main species in solution is assigned to [Fe(DFX)2]^3−.^[ [49] ^] Indeed, we aimed to explore not only the chelation properties but also the impact of the chelated species on enzyme inhibition.
2.c. Chelation properties, iron interactions, and selectivity profiles of selected compounds targeting KLK activity.
Figure S2: Stability of the chelated species as monitored by spectrophotometry. UV/VIS spectra of molecules alone using activity buffer at pH 7.4 (in orange at 500 µM) or in the presence of FeCl3 (ratio of 1:1) at different times (t = 0 in red, 30 min in black, 60 min in blue and 240 min in green). The purple trace corresponds to iron only at 500 µM All data are representative of 2 independent experiments performed in duplicate. […]

KLK8 = molecular target: T6, KLK8 (Homo sapiens, UniProt O60259); assay: KLK8 fluorogenic enzyme inhibition assay (Boc-VPR-AMC); conditions: for Ki′ KLK8 / Type of inhibition KLK8: Dixon plot, without Fe3+; for Ki′ KLK8: 100 μM substrate; for inhibition at 50 µM: read-out: percentage of inhibition KLK8
T6 sequence (O60259 33-260): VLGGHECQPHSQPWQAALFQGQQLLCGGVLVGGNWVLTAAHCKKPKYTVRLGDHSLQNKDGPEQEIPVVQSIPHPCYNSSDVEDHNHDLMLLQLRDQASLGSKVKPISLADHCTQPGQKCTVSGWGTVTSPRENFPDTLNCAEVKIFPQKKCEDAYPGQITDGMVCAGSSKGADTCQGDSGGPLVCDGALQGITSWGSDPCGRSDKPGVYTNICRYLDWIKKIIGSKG
Description: (§21) All enzyme stocks were stored at −20 °C and purchased from R&D Systems as proenzymes (KLK6, KLK8, KLK13) or as mature and active forms (KLK5). Activation of KLK6, KLK8, and KLK13 is performed in optimized buffers. The activation reaction is initiated by Lysyl‐Endopeptidase at 2.5 mU mL^−1 (Wako Bioproducts). The activation reaction is stopped by diluting the enzyme to 0.5 μg mL^−1 in assay buffer (50 mM Tris, 1 M Citrate, 0.05% w/v Brij‐35, pH 8) to obtain an active enzyme stock. KLK1 was purchased from R & D Systems as pro‐KLK1. Activation of KLK1 is performed in 50 mM Tris‐HCl, 10 mM CaCl2, 150 mM NaCl, 0.05% Brij‐35, pH 7.5. The activation reaction is initiated by bacterial thermolysin at 0.4 μg mL^−1 (Sigma‐Aldrich) and stopped by addition of 100 mM EDTA (Sigma‐Aldrich) to obtain an active KLK1 stock at the same concentration of 100 μg mL^−1. […] All enzyme stocks were stored at −20 °C. H‐PFR‐AMC (KLK1), Boc‐VPR‐AMC (KLK5, KLK8, KLK13), Boc‐QAR‐AMC (KLK6, Plasmin), substrates were purchased from Bachem. […] Plasmin (Sigma‐Aldrich) was purchased in mature and active form.
as §2, §3
(§22) The equation is entered in the Kaleidagraph 4.5 software for curve fitting f([I]) = % Inhibition, where [I] is the inhibitor concentration.
(§23) The mechanism of inhibition was determined by varying substrate and inhibitor concentrations, the type of inhibition and inhibition parameter (Ki or Ki′) are determined by Dixon's plots.

KLK7 = KLK7 (Homo sapiens, UniProt P49862); assay: Selectivity screening, KLK7; conditions: read-out: percentage of inhibition KLK7
Chain of KLK7 (P49862 30-253): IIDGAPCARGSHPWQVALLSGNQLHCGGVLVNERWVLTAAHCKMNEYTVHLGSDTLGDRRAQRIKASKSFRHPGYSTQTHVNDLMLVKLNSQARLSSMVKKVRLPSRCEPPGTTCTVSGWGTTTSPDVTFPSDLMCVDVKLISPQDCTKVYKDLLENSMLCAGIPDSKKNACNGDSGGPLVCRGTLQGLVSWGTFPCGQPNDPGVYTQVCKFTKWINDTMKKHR
Description: as §1
(§24) Compounds were screened on KLKs using a BMG Fluostar microplate reader (black 96‐well microplates). […]
(§25) The proteases are first preincubated for 15 min with each compound (50 and 100 μM) or with DMSO (<2%, negative control) in a total volume of 85 μL of 50 mM Tris buffer, 1 M citrate, 0.05% Brij‐35, pH 7, 37 °C. […] The release of the AMC fluorescent group is detected using the following wavelengths: λex = 360 nm and λem = 460 nm. The percent inhibition is calculated from Equation (1) where V 0 is the initial rate of the DMSO control, the initial rate in the presence of the inhibitor V i. […]

[6] = tested on: targeted KLKs (KLK1, KLK6, KLK8); assay: Impact of preincubated compound (50 μM) and Fe3+ (100 μM) on targeted KLKs; type: biochemical, human; conditions: compound 50 μM preincubated with Fe3+ 100 μM
Description: Next, we evaluated the impact of preincubated mixtures of each compound at 50 μM and Fe^3+ at 100 μM to model an iron overload condition on targeted KLKs (Figure S5, Supporting Information).

KLK6 = KLK6 (Homo sapiens, UniProt Q92876); assay: KLK6 fluorogenic enzyme inhibition assay (Boc-QAR-AMC); conditions: for inhibition at 50 µM: read-out: percentage of inhibition KLK6
Description: as §21, §2, §3, §22, §23

KLK1 = KLK1 (Homo sapiens, UniProt P06870); assay: KLK1 fluorogenic enzyme inhibition assay (H-PFR-AMC); conditions: for Type of inhibition KLK1: Dixon plot, without Fe3+; for IC50: IC50 KLK1, 15 min preincubation at 37 °C, NI = not a hit (not above 50% inhibition at 50 μM); for inhibition at 50 µM: read-out: percentage of inhibition KLK1
Chain of KLK1 (P06870 25-262): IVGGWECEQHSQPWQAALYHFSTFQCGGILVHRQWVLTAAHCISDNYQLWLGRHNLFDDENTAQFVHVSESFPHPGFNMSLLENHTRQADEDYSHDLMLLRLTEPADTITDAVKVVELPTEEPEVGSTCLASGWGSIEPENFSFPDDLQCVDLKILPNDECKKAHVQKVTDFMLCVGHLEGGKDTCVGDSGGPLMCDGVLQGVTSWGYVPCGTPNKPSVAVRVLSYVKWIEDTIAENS
Description: as §21, §2, §3, §22, §23

Plasmin = Plasmin (Homo sapiens, UniProt P00747); assay: Selectivity screening, plasmin; conditions: read-out: percentage of inhibition Plasmin
Chain of Plasmin (P00747 581-810 limits assumed, species assumed): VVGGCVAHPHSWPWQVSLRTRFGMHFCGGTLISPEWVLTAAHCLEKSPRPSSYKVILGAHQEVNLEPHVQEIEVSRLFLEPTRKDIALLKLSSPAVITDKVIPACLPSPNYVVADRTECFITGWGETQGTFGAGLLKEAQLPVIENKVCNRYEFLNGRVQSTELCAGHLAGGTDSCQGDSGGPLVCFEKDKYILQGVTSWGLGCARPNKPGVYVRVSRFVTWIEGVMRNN
Chain of Plasmin (P00747 97-580 partner limits assumed, species assumed): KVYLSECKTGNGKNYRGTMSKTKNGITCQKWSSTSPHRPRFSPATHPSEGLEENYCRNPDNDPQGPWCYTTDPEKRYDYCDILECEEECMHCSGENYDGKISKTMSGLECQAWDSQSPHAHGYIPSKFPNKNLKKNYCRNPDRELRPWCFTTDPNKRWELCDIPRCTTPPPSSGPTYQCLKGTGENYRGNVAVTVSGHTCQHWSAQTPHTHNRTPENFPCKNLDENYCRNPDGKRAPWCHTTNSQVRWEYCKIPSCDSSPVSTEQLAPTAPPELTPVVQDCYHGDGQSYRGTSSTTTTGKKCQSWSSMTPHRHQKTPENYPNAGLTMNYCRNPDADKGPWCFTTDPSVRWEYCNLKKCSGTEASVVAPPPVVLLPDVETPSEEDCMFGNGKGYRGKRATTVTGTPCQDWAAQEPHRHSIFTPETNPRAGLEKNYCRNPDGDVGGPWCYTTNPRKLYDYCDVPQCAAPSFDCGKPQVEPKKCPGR
Description: All enzyme stocks were stored at −20 °C and purchased from R&D Systems as proenzymes (KLK6, KLK8, KLK13) or as mature and active forms (KLK5). Activation of KLK6, KLK8, and KLK13 is performed in optimized buffers. The activation reaction is initiated by Lysyl‐Endopeptidase at 2.5 mU mL^−1 (Wako Bioproducts). The activation reaction is stopped by diluting the enzyme to 0.5 μg mL^−1 in assay buffer (50 mM Tris, 1 M Citrate, 0.05% w/v Brij‐35, pH 8) to obtain an active enzyme stock. KLK1 was purchased from R & D Systems as pro‐KLK1. Activation of KLK1 is performed in 50 mM Tris‐HCl, 10 mM CaCl2, 150 mM NaCl, 0.05% Brij‐35, pH 7.5. […]
as §24, §25

Cathepsin L = Cathepsin L (Homo sapiens, UniProt P07711); assay: Selectivity screening, cathepsin L; type: biochemical; conditions: 50 μM compound, without Fe3+; read-out: percentage of inhibition Cathepsin L
Chain of Cathepsin L (P07711 114-333, species assumed): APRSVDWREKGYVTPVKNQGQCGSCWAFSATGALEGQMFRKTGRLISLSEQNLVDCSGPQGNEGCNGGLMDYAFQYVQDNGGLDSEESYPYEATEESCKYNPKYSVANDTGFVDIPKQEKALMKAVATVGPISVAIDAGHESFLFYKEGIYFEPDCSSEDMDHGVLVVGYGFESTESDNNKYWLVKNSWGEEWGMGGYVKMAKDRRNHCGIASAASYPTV

Thrombin = Thrombin (Homo sapiens, UniProt P00734); assay: Selectivity screening, thrombin; type: biochemical; conditions: 50 μM compound, without Fe3+; read-out: percentage of inhibition Thrombin
[7] = IC50 KLK8, 15 min preincubation at 37 °C, NI = not a hit (not above 50% inhibition at 50 μM)

| SMILES | Kd [1] | inhibition at 50 µM (KLK13) | reversibility and time dependence of inhibition [2] | inhibition at 50 µM (KLK4) | viability at 24 h [3] | viability at 24 h [4] | inhibition at 50 µM (KLK14) | inhibition at 50 µM (KLK11) | inhibition at 50 µM (KLK5) | Ki′ KLK8 (KLK8) | Type of inhibition KLK8 (KLK8) | inhibition at 50 µM (KLK8) | inhibition at 50 µM (KLK7) | IC50 (KLK8) | change of inhibitory activity in the presence of iron [6] | IC50 (KLK1) | inhibition at 50 µM (KLK1) | also measured |
| --- | --- | --- | --- | --- | --- | --- | --- | --- | --- | --- | --- | --- | --- | --- | --- | --- | --- | --- |
| O=C(O)c1ccc(-n2nc(-c3ccccc3O)nc2-c2ccccc2O)cc1 [3a, Deferasirox] | 0.549 ± 0.007 nM | 95.1% | reversible and time‐independent inhibitors | 80.6% | > 80% | > 80% | 94.2% | 90.6% | 85.1% | 8 µM | Uncompetitive | 70.1% | – | – | – | – | – | UV–vis spectrum in the presence of FeCl3 (iron complex formation) [5]: appearance of an absorption band with a maximum at 468 nm; Type of inhibition KLK8 (KLK8; listed as DFX): uncompetitive inhibition; IC50 (KLK8; [7]): 29.2 ± 1 µM; IC50 (KLK8; IC50 KLK8, initial screening of an in‐house array of 1,2,4‐triazole derivatives): ~30 µM |
| O=C(O)c1cccc(-n2nc(-c3ccccc3O)nc2-c2ccccc2O)c1 [3b] | 0.063 ± 0.011 nM | – | reversible and time‐independent inhibitors | 83.8% | > 80% | > 80% | 95.1% | 90.9% | 98.1% | 18 µM | Uncompetitive | 62.1% | 88.1% | 21.4 ± 0.4 µM | – | – | – | – |
| Oc1ccccc1-c1n[nH]c(-c2ccccc2O)n1 [3c] | 0.032 ± 0.012 nM | – | – | – | – | – | – | – | – | – | – | – | – | – | significant higher inhibitory potency in the presence of Fe^3+ on all KLKs | – | – | IC50 (KLK8; [7]): > 50 µM |
| CC(C)(C)n1nc(-c2ccccc2O)nc1-c1ccccc1O [3d] | 2.15 ± 0.11 nM | – | – | – | – | – | – | – | – | – | – | – | – | > 50 µM | do not show an increased inhibitory activity in the presence of iron | – | – | – |
| O=C(c1ccccc1)n1nc(-c2ccccc2O)nc1-c1ccccc1O [3e] | 0.41 ± 0.035 nM | 97.1% | reversible and time‐independent inhibitors | 67.2% | > 80% | > 80% | – | – | 98.8% | – | – | – | – | > 50 µM | – | 23.3 ± 0.9 µM | 82.1% | inhibition at 50 µM (KLK6): 82.4%; Ki (KLK1): 24 µM; Type of inhibition KLK1 (KLK1): competitive inhibitor |
| O=C(NC(Cc1c[nH]c2ccccc12)C(=O)O)c1ccc(-n2nc(-c3ccccc3O)nc2-c2ccccc2O)cc1 (centres unmarked) [3lb] | – | 98.1% | reversible and time‐independent inhibitors | 99.7% | > 80% | > 80% | 98.8% | 81.4% | 98.2% | – | – | 50.2% | 90.5% | 27.1 ± 1.1 µM | – | – | 90.1% | inhibition at 50 µM (Plasmin): 60.5%; inhibition at 50 µM (Cathepsin L): < 50%; Ki (KLK8): 12 µM |
| O=C(O)C1CCCN1C(=O)c1ccc(-n2nc(-c3ccccc3O)nc2-c2ccccc2O)cc1 (centres unmarked) [3mb] | 0.029 ± 0.017 nM | 85.2% | reversible and time‐independent inhibitors | 77.3% | > 80% | > 80% | 89.7% | 76.7% | 95.1% | 25 µM | uncompetitive inhibition | 63.1% | 70.1% | 25.9 ± 0.7 µM | – | – | – | inhibition at 50 µM (Thrombin): 61.1% |
| Oc1ccc(-n2nc(-c3ccccc3O)nc2-c2ccccc2O)cc1 [3r] | 0.062 ± 0.014 nM | 98.3% | reversible and time‐independent inhibitors | 84.3% | > 80% | > 80% | 62.2% | – | 85.5% | – | – | – | – | > 50 µM | – | 16.4 ± 1.3 µM | 79.1% | inhibition at 50 µM (KLK6): < 50%; Ki (KLK1): 29 µM; Type of inhibition KLK1 (KLK1): Noncompetitive; inhibition at 50 µM (Thrombin): < 50% |
| CC(=O)Oc1ccccc1-c1nc(-c2ccccc2OC(C)=O)n(-c2ccc(C(=O)O)cc2)n1 [compound 22] | – | – | – | – | – | – | – | – | – | – | – | – | – | > 50 µM | do not show an increased inhibitory activity in the presence of iron | > 50 µM | – | IC50 (KLK6): > 50 µM; UV–vis spectrum in the presence of FeCl3 (iron complex formation) [5]: no changes in the absorption spectra |
